What is called pIC50 is the negative decadic logarithm of the IC50, by convention in mol/L.

pIC50: −log10 of the molar value. ≈ marks a conversion by molar mass, not a printed value. Like-named read-outs stand apart in the source and are kept apart here.

The values that follow come from US20200289514A1, “Novel Pyrazolo Pyrimidine Derivatives” (Novartis AG, priority 2015, published 2020).

Data set [1] has as its system Human IL2 promoter. The data set can be described thus: Human IL2 promoter reporter gene assay (RGA) in Jurkat cells. The settings on record: Jurkat clone K22 290_H23, anti-CD28 mAb + PMA, 5.5 h. It is filed as cell-based. Here is the method:
Human IL2 Promoter Reporter Gene Assay (RGA) in Jurkat Cells
The transfected Jurkat clone K22 290_H23 was propagated in RPMI 1640 supplemented with 10% heat inactivated fetal calf serum, 50 μM 2-mercaptoethanol and 1 mg/ml Geneticin. The cell concentration should not exceed 1×10e6/ml during culturing. The cells should not exceed passage 30. Prior to the assay the cells were washed and prepared to the concentration of 2×10e6 cells/ml.
Compound dilutions were made as 2×-concentrated solutions then diluted ½ by addition to cells. Two hundred and fifty μl of compound dilution and 250 μl of cells were mixed together in wells of a 96-deep well plate. Cells/compounds premix were incubated 30 min at 37° C. and 5% CO2 directly in the deep well plate.
After pre-incubation of cells with compounds, cells were stimulated with anti-CD28 mAb (clone 15E8) at 3 μg/ml+PMA at 1 μg/ml. Both co-stimulants were diluted in culture medium at a 10×-concentrated solution. 10 μl of co-stimulants were pipetted into the white 96-well plates and 100 μl of cell/compound mix was immediately added in duplicates. The cells were stimulated for 5.5 h at 37° C. and 5% CO2.
After cell stimulation, 50 μl of BriteLitePlus reagent (Perkin Elmer) was added to each well and the bioluminescence was measured with a Wallac EnVision reader (Perkin Elmer).
(A reporter such as luciferase makes a cellular process visible.)

The target in data set [2] is T1, C-domain of MALT1 (amino acids 329-824) (Homo sapiens, UniProt Q9UDY8).
T1 sequence (Q9UDY8 329-824): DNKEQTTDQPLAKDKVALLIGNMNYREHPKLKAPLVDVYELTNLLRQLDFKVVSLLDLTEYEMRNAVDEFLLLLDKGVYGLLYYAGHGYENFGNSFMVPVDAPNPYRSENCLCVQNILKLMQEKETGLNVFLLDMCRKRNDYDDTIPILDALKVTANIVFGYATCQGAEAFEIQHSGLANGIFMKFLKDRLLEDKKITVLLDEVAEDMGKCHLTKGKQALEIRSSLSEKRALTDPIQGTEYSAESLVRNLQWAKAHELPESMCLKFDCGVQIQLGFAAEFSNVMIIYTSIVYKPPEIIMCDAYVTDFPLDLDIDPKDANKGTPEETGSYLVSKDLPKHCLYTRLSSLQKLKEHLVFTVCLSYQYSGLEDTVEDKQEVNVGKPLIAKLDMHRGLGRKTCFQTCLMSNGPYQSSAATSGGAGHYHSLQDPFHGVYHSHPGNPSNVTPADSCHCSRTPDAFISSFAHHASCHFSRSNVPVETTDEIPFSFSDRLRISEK
Briefly: MALT1 Biochemical Assay - Version 1 (fluorescence lifetime).
Experimental: The readout parameter is the increase of fluorescence lifetime over time, proportional to enzyme activity.
The assay employs a short peptide substrate labeled with the single fluorophore PT14 as a fluorescence lifetime probe sensitive to the cleavage state of the substrate (PT14: 6-(9-oxo-9H-acridin-10-yl)-hexanoate, AssayMetrics, UK). […] Test compounds were dissolved in 100% (v/v) DMSO or a mixture containing 90% (v/v) DMSO and 10% (v/v) H2O at a stock concentration of 100 mM. Serial dilutions of test compounds were prepared using either 100% (v/v) DMSO or a mixture containing 90% (v/v) DMSO and 10% (v/v) H2O.
where y is the %-inhibition at the inhibitor concentration, x. A1 is the lowest inhibition value, and A2 the maximum inhibition value. The exponent, p, is the Hill coefficient.

The nature of data set [3]: Solubility in aqueous and biorelevant media. In kind it is physicochemical.

For the molecule `CO[C@@H](C)c1c(NC(=O)Nc2ccnc(C(F)F)c2)cnc2cc(F)nn12` [Example 2, (S)-1-(2-(difluoromethyl)pyridin-4-yl)-3-(2-fluoro-7-(1-methoxyethyl)pyrazolo[1,5-a]pyrimidin-6-yl)urea], the figures for the pIC50 in data set [1] and in data set [2] were 7.33 and 7.74, respectively. In addition, the solubility in data set [3] (Free form, Fasted state simulated intestinal fluid FaSSIF (V2) pH 6.5, [pH] 6.64, read-out: Solubility mg/mL [pH] Free form) is 0.041 mg/mL (≈ 108 µM); in data set [3] (Free form, Fed state intestinal fluid FeSSIF (V2) pH 5.8, [pH] 5.85, read-out: Solubility mg/mL [pH] Free form), 0.093 mg/mL (≈ 245 µM); in data set [3] (Free form, Simulated Gastric Fluid (SGF) pH 2.0, [pH] 1.99, read-out: Solubility mg/mL [pH] Free form), 0.338 mg/mL (≈ 889 µM); in data set [3] (Free form, Water, [pH] 7.76, read-out: Solubility mg/mL [pH] Free form) it was 0.029 mg/mL (≈ 76.2 µM); in data set [3] (aqueous buffer, Free form, 19.12 mM Sodium Maleate (blank FaSSIF) pH 6.5, [pH] 6.61, read-out: Solubility mg/mL [pH] Free form), 0.026 mg/mL (≈ 68.4 µM); in data set [3] (aqueous buffer, Free form, 100 mM Sodium Acetate pH 4.0, [pH] 3.99, read-out: Solubility mg/mL [pH] Free form) it was 0.032 mg/mL (≈ 84.1 µM). The solubility in data set [3] (simulated gastric fluid, Free form, HCl/KCl pH 1.0, [pH] 1.12, read-out: Solubility mg/mL [pH] Free form) is greater than 2 mg/mL.
`CO[C@@H](C)c1c(NC(=O)Nc2cc[n+]([O-])c(C(F)F)c2)cnc2cc(F)nn12` [Example 42, (S)-2-(difluoromethyl)-4-(3-(2-fluoro-7-(1-methoxyethyl)pyrazolo[1,5-a]pyrimidin-6-yl)ureido)pyridine 1-oxide]: the results for the pIC50 in data set [1] and in data set [2] were 6.14 and 7.02, respectively.
As for `CO[C@@H](C)c1c(NC(=O)Nc2ccnc(C(O)C(F)(F)F)c2)cnc2cc(Cl)nn12` (stereo partly drawn) [Example 20, 1-(2-chloro-7-((S)-1-methoxyethyl)pyrazolo [1,5-a]pyrimidin-6-yl)-3-(2-(2,2,2-trifluoro-1-hydroxyethyl)pyridin-4-yl)urea], the values for the pIC50 in data set [1] and in data set [2] were 7.00 and 8.05, respectively.
With `CO[C@H](c1c(NC(=O)Nc2cnc(-n3nccn3)c(C#N)c2)cnc2cc(C)nn12)C(C)C` [Example 15, (S)-1-(5-cyano-6-(2H-1,2,3-triazol-2-yl)pyridin-3-yl)-3-(7-(1-methoxy-2-methylpropyl)-2-methylpyrazolo[1,5-a]pyrimidin-6-yl)urea], the pIC50 is 7.92 in data set [1] and 8.05 in data set [2].
Consider `C[C@H](N)c1c(NC(=O)Nc2cnc(-n3nccn3)c(Cl)c2)cnc2cc(Cl)nn12` [Example 38, (S)-1-(7-(1-aminoethyl)-2-chloropyrazolo[1,5-a]pyrimidin-6-yl)-3-(5-chloro-6-(2H-1,2,3-triazol-2-yl)pyridin-3-yl)urea], for which the pIC50 in data set [1] is 7.07; in data set [2], 7.62.
On to `CO[C@@H](C)c1c(NC(=O)Nc2ccnc(C#N)c2)cnc2cc(F)nn12` [Example 23, (S)-1-(2-cyanopyridin-4-yl)-3-(2-fluoro-7-(1-methoxyethyl)pyrazolo [1,5-a]pyrimidin-6-yl)urea], for which the pIC50 in data set [1] was 7.38; in data set [2], 7.80.
As for `CO[C@@H](C)c1c(NC(=O)Nc2cnc(-n3nccn3)c(C#N)c2)cnc2cc(F)nn12` [Example 18, (S)-1-(5-cyano-6-(2H-1,2,3-triazol-2-yl)pyridin-3-yl)-3-(2-fluoro-7-(1-methoxyethyl)pyrazolo [1,5-a]pyrimidin-6-yl)urea], the values for the pIC50 in data set [1] and in data set [2] were 7.72 and 8.40, respectively.
In the case of `CO[C@@H](C)c1c(NC(=O)Nc2cnc(-n3nccn3)c(Cl)c2)cnc2cc(Cl)nn12` [Example 5, (S)-1-(5-chloro-6-(2H-1,2,3-triazol-2-yl)pyridin-3-yl)-3-(2-chloro-7-(1-methoxyethyl)pyrazolo[1,5-a]pyrimidin-6-yl)urea], in data set [1], the pIC50 was 7.72. For the same molecule, the solubility in data set [3] (Fasted state simulated intestinal fluid (FaSSIF), [pH] 6.59, read-out: Solubility (mg/mL) [pH]) was 0.0044 mg/mL (≈ 9.82 µM); in data set [3] (Fed state intestinal fluid (FeSSIF), [pH] 6.87, read-out: Solubility (mg/mL) [pH]), 0.0082 mg/mL (≈ 18.3 µM); in data set [3] (Simulated Gastric Fluid (SGF), [pH] 2.55, read-out: Solubility (mg/mL) [pH]), 0.0168 mg/mL (≈ 37.5 µM); in data set [3] (Water, [pH] 7.39, read-out: Solubility (mg/mL) [pH]) it was 0.005 mg/mL (≈ 11.2 µM); in data set [3] (medium of pH 1.2 (composition not named), simulated gastric fluid, pH 1.2, [pH] 1.17, read-out: Solubility (mg/mL) [pH]), 0.0038 mg/mL (≈ 8.48 µM); in data set [3] (medium of pH 3.0 (composition not named), aqueous buffer, pH 3.0, [pH] 3.14, read-out: Solubility (mg/mL) [pH]), 0.0052 mg/mL (≈ 11.6 µM). In addition, the solubility in data set [3] (medium of pH 4.7 (composition not named), aqueous buffer, pH 4.7, [pH] 4.71, read-out: Solubility (mg/mL) [pH]) turned out to be 0.0048 mg/mL (≈ 10.7 µM); in data set [3] (medium of pH 7.4 (composition not named), aqueous buffer, pH 7.4, [pH] 7.34, read-out: Solubility (mg/mL) [pH]), 0.004 mg/mL (≈ 8.92 µM); in data set [3] (medium of pH 9.0 (composition not named), aqueous buffer, pH 9.0, [pH] 8.09, read-out: Solubility (mg/mL) [pH]), 0.0055 mg/mL (≈ 12.3 µM).
For the molecule `CO[C@@H](C)c1c(NC(=O)Nc2cncc(C(F)(F)F)c2)cnc2cc(F)nn12` [Example 30, (S)-1-(2-fluoro-7-(1-methoxyethyl)pyrazolo [1,5-a]pyrimidin-6-yl)-3-(5-(trifluoro-methyl)pyridin-3-yl)urea], the pIC50 is 7.70 in data set [1] and 8.15 in data set [2].
As for `COCC1(c2c(NC(=O)Nc3ccnc(C#N)c3)cnc3cc(Cl)nn23)CC1` [Example 37, 1-(2-chloro-7-(1-(methoxymethyl)cyclopropyl)pyrazolo [1,5-a]pyrimidin-6-yl)-3-(2-cyanopyridin-4-yl)urea], the pIC50 in data set [1] is 7.24; in data set [2], 7.60.
`C[C@H](O)c1c(NC(=O)Nc2ccnc(C(F)F)c2)cnc2cc(F)nn12` [Example 40, (S)-1-(2-(difluoromethyl)pyridin-4-yl)-3-(2-fluoro-7-(1-hydroxyethyl)pvrazolo[1,5-a]pyrimidin-6-yl)urea]: the pIC50 was 7.00 in data set [1] and 7.96 in data set [2].
As to `CO[C@@H](C)[C@H](OC)c1c(NC(=O)Nc2cnc(-n3nccn3)c(C#N)c2)cnc2cc(Cl)nn12` [Example 25, 1-(2-chloro-7-((1R, 2S)-1,2-dimethoxypropyl)pyrazolo[1,5-a]pyrimidin-6-yl)-3-(5-cyano-6-(2H-1,2,3-triazol-2-yl)pyridin-3-yl)urea], the values for the negative-log IC50 (pIC50) in data set [1] and in data set [2] were 7.68 and 8.40, respectively.
On to `COCC1(c2c(NC(=O)Nc3cncc(C#N)c3)cnc3cc(Cl)nn23)CC1` [Example 9, 1-(2-chloro-7-(1-(methoxymethyl)cyclopropyl)pyrazolo[1,5-a]pyrimidin-6-yl)-3-(5-cyanopyridin-3-yl)urea], for which the pIC50 in data set [1] is 7.03; in data set [2], 7.54.
The like results for `CO[C@@H](C)c1c(NC(=O)Nc2cc(Cl)nc(C(=O)N(C)C)c2)cnc2cc(Cl)nn12` [Example 28, (S)-6-chloro-4-(3-(2-chloro-7-(1-methoxyethyl)pyrazolo [1,5-a]pyrimidin-6-yl)ureido)-N, N-dimethylpicolinamide] were, in that order, 7.35 and 7.89.
For `COCCOc1ncc(Cl)cc1NC(=O)Nc1cnc2cc(Cl)nn2c1[C@H](C)OC` [Example 21, (S)-1-(5-chloro-2-(2-methoxyethoxy)pyridin-3-yl)-3-(2-chloro-7-(1-methoxyethyl)-pyrazolo[1,5-a]pyrimidin-6-yl)urea], the results for the pIC50 in data set [1] and in data set [2] were 7.33 and 8.05, respectively.
Take `COc1ncc(NC(=O)Nc2cnc3cc(C)nn3c2[C@@H](OC)C(C)C)cc1C#N` [Example 22, (S)-1-(5-cyano-6-methoxypyridin-3-yl)-3-(7-(1-methoxy-2-methylpropyl)-2-methylpyrazolo[1,5-a]pyrimidin-6-yl)urea]: the values for the pIC50 in data set [1] and in data set [2] were 7.60 and 8.15, respectively.
The like results for `Cc1cc2ncc(NC(=O)Nc3cncc(C#N)c3)c([C@H](C)O)n2n1` [Example 39, (S)-1-(5-cyanopyridin-3-yl)-3-(7-(1-hydroxyethyl)-2-methylpyrazolo [1,5-a]pyrimidin-6-yl)urea] were, in that order, 6.22 and 7.14.
